From DBAASP come the findings set out here.

In brackets after ≈: the same amount, converted by molar mass. Where only a bound is given, the exact number is not on record here.

Test systems include Shigella flexneri; Streptococcus agalactiae; Bacillus subtilis 168; Pseudomonas aeruginosa; Staphylococcus aureus; Escherichia coli B; Staphylococcus aureus 1; Staphylococcus capitis 1; Bacillus megaterium Bm11; Escherichia coli MH1.
Common to all, as to test: ≥ marks a high value that may be exact or a test limit, other limits are often not marked, values filed in µg/mL are converted to µM
In experiment [1] the test system is Salmonella enterica subsp. enterica serovar Typhi ATCC 6399.
Experiment [2] concerns Listeria monocytogenes ATCC 7644.
Experiment [3] relates to Staphylococcus aureus ATCC 25923.
In experiment [4] the test system is Bacillus subtilis ATCC 6633.
In experiment [5] the test system is Escherichia coli ATCC 25922.
For experiment [6], the system named is Bacillus subtilis IFO 3513.
The subject of experiment [7] is Escherichia coli IFO 12734.
The test system of experiment [8] is Staphylococcus aureus IFO 12732.
Experiment [9] concerns Pseudomonas aeruginosa ATCC 27853.
Experiment [10] has as its system Staphylococcus aureus ATCC 43300.
Experiment [11] relates to Candida albicans F7-39/IDE99.
Experiment [12] has as its system Micrococcus luteus CCM 144.
For experiment [13], the system named is Staphylococcus epidermidis.
Experiment [14] deals with Yersinia pseudotuberculosis YPIII.
Experiment [15] concerns Candida albicans ATCC 10231.
In experiment [16] the test system is Staphylococcus aureus Cowan 1.
Experiment [17] deals with Arthrobacter globiformis VKM Ac-1112.
The test system of experiment [18] is Bacillus subtilis VKM B-501.
The subject of experiment [19] is Escherichia coli DSM 1116.
The test system of experiment [20] is Saccharomyces cerevisiae Y190.
Experiment [21] deals with Acinetobacter sp. DSM 586.
Experiment [22] has as its system Bacillus subtilis subsp. spizizenii DSM 347.
For experiment [23], the system named is Staphylococcus xylosus DSM 20267.
For experiment [24], the system named is Escherichia coli DH5alpha.
The test system of experiment [25] is Pseudomonas aeruginosa PAO1.

As to `CC[C@H](C)[C@H](NC(=O)[C@H](CC(C)C)NC(=O)[C@H](CCCCN)NC(=O)[C@H](CC(C)C)NC(=O)[C@H](C)NC(=O)CNC(=O)[C@H](CCCCN)NC(=O)[C@H](C)NC(=O)[C@H](CC(C)C)NC(=O)[C@H](C)NC(=O)CNC(=O)[C@H](Cc1c[nH]c2ccccc12)NC(=O)[C@@H](N)Cc1ccccc1)C(=O)N[C@H](C(=O)NCC(=O)N[C@@H](CO)C(=O)N[C@@H](CC(C)C)C(=O)N[C@@H](Cc1ccccc1)C(=O)N[C@@H](CO)C(=O)N[C@@H](CO)C(=O)N[C@@H](Cc1ccccc1)C(=O)N[C@@H](CO)C(=O)N[C@@H](CCCCN)C(=O)N[C@@H](CCCCN)C(=O)N[C@@H](CC(=O)O)C(=O)O)C(C)C` [FWGALAKGALKLIVGSLFSSFSKKD], the MIC in experiment [1] is at least 300 µM; with Shigella flexneri, at least 300 µM; in [2] it was at least 300 µM; in [3], 300 µM (≈ 801 µg/mL); in experiment [4] it was at least 300 µM; against Streptococcus agalactiae it was at least 300 µM. Moreover, the MIC in experiment [5] stood at 300 µM (≈ 801 µg/mL).

Regarding `CC[C@H](C)[C@H](N)C(=O)N[C@@H](CC(C)C)C(=O)N1CCC[C@H]1C(=O)N[C@@H](CCCCN)C(=O)N[C@@H](CCCCN)C(=O)N[C@@H](Cc1c[nH]c2ccccc12)C(=O)N1CCC[C@H]1C(=O)N[C@@H](CCCCN)C(=O)N[C@@H](CC(C)C)C(=O)N1CCC[C@H]1C(=O)N[C@@H](Cc1c[nH]c2ccccc12)C(=O)N[C@@H](CCCN=C(N)N)C(=O)N[C@@H](CCCN=C(N)N)C(N)=O` [ILPKKWPKLPWRR], the MIC in [6] was 1.82 µM (≈ 3.13 µg/mL); in experiment [7], 29.1 µM (≈ 50 µg/mL); in [8] it was 3.64 µM (≈ 6.25 µg/mL).

`CC[C@H](C)[C@H](NC(=O)CN)C(=O)N[C@@H](CCSC)C(=O)N[C@@H](CO)C(=O)N[C@@H](CO)C(=O)N[C@@H](CC(C)C)C(=O)N[C@@H](CCSC)C(=O)N[C@@H](CCCCN)C(=O)N[C@@H](CCCCN)C(=O)N[C@@H](CC(C)C)C(=O)N[C@@H](C)C(=O)N[C@@H](CCCCN)C(=O)N[C@@H](Cc1cnc[nH]1)C(=O)N[C@H](C(=O)N[C@@H](C)C(=O)N[C@@H](CCCCN)C(N)=O)[C@@H](C)CC` [GIMSSLMKKLAKHIAK]: the MIC against Bacillus subtilis 168 is 7 µM (≈ 12.3 µg/mL); in experiment [9], 7.9 µM (≈ 13.9 µg/mL); with Pseudomonas aeruginosa it was 20 µM (≈ 35.1 µg/mL); in experiment [10], 63 µM (≈ 111 µg/mL); in [11] it was 14 µM (≈ 24.6 µg/mL); against Staphylococcus aureus, 63 µM (≈ 111 µg/mL). Besides, the MIC against Escherichia coli B was 15 µM (≈ 26.3 µg/mL); in the experiment on Staphylococcus aureus 1 it was at least 35 µM; in [12] it was 3 µM (≈ 5.27 µg/mL); in experiment [13], 6.2 µM (≈ 10.9 µg/mL).

Regarding `CC[C@H](C)[C@H](NC(=O)CNC(=O)[C@H](CO)NC(=O)[C@H](CC(C)C)NC(=O)[C@@H](NC(=O)[C@H](CCCN=C(N)N)NC(=O)CNC(=O)[C@@H](NC(=O)[C@H](CC(C)C)NC(=O)[C@H](C)NC(=O)[C@H](CC(C)C)NC(=O)[C@@H](N)Cc1ccccc1)[C@@H](C)CC)C(C)C)C(=O)N[C@@H](CC(C)C)C(N)=O` [FLALIGRVLSGIL], the MIC in [14] was 20 µM (≈ 27.4 µg/mL); in [15], 1.25 µM (≈ 1.71 µg/mL); in the experiment on Staphylococcus capitis 1, 2.5 µM (≈ 3.43 µg/mL); against Bacillus megaterium Bm11, 2.5 µM (≈ 3.43 µg/mL); in [16] it was 2.5 µM (≈ 3.43 µg/mL); in experiment [5] it was over 40 µM.

Turning to `CSCC[C@H](NC(=O)CNC(=O)[C@H](CO)NC(=O)[C@H](Cc1c[nH]c2ccccc12)NC(=O)[C@H](CCSC)NC(=O)[C@@H](N)CO)C(=O)N[C@@H](Cc1c[nH]c2ccccc12)C(=O)N[C@@H](CCCN=C(N)N)C(=O)N[C@@H](CCCN=C(N)N)C(=O)N[C@@H](CCCCN)C(=O)N[C@@H](CC(C)C)C(=O)N[C@@H](CCCCN)C(=O)N[C@@H](CCCCN)C(=O)N[C@@H](CC(C)C)C(=O)N[C@@H](CCCN=C(N)N)C(=O)N[C@@H](CC(N)=O)C(=O)N[C@@H](C)C(=O)N[C@@H](CC(C)C)C(=O)N[C@@H](CCCCN)C(=O)N[C@@H](CCCCN)C(=O)N[C@@H](CCCCN)C(=O)N[C@@H](CC(C)C)C(=O)N[C@@H](CCCCN)C(=O)NCC(=O)N[C@@H](CCC(=O)O)C(=O)O` [SMWSGMWRRKLKKLRNALKKKLKGE], the MIC in the experiment on Escherichia coli MH1 was 0.7 µM (≈ 2.15 µg/mL); in experiment [17], 0.5 µM (≈ 1.54 µg/mL); in experiment [18], 1 µM (≈ 3.07 µg/mL); in [19], 1.3 µM (≈ 4 µg/mL); in experiment [20], at least 33 µM; in [21], 1.3 µM (≈ 4 µg/mL). The MIC came to 1.3 µM (≈ 4 µg/mL) in experiment [22], 1.3 µM (≈ 4 µg/mL) in [23], 1 µM (≈ 3.07 µg/mL) in experiment [24] and 4.1 µM (≈ 12.6 µg/mL) in experiment [25].

Consider `CC[C@H](C)[C@H](NC(=O)[C@H](CC(C)C)NC(=O)[C@H](CCCCN)NC(=O)[C@H](CC(C)C)NC(=O)[C@H](C)NC(=O)CNC(=O)[C@H](CCCCN)NC(=O)[C@H](C)NC(=O)[C@H](CC(C)C)NC(=O)[C@H](C)NC(=O)CNC(=O)[C@H](Cc1c[nH]c2ccccc12)NC(=O)[C@@H](N)Cc1ccccc1)C(=O)NCC(=O)N[C@H](C(=O)N[C@@H](CO)C(=O)N[C@@H](CC(C)C)C(=O)N[C@@H](Cc1ccccc1)C(=O)N[C@@H](CO)C(=O)N[C@@H](CO)C(=O)N[C@@H](Cc1ccccc1)C(=O)N[C@@H](CO)C(=O)N[C@@H](CCCCN)C(=O)N[C@@H](CCCCN)C(=O)N[C@@H](CC(=O)O)C(=O)O)C(C)C` [FWGALAKGALKLIGVSLFSSFSKKD], for which the MIC in experiment [1] is at least 300 µM; in the experiment with Shigella flexneri, at least 300 µM; in experiment [2] it was at least 300 µM; in experiment [3], 300 µM (≈ 801 µg/mL); in experiment [4], at least 300 µM; in the experiment on Streptococcus agalactiae it was at least 300 µM. Also, the MIC in experiment [5] stood at 300 µM (≈ 801 µg/mL).

On to `CC[C@H](C)[C@H](N)C(=O)N[C@@H](CC(C)C)C(=O)N1CCC[C@H]1C(=O)N[C@@H](Cc1c[nH]c2ccccc12)C(=O)N[C@@H](CCCCN)C(=O)N[C@@H](CC(C)C)C(=O)N1CCC[C@H]1C(=O)N[C@@H](Cc1c[nH]c2ccccc12)C(=O)N[C@@H](Cc1c[nH]c2ccccc12)C(=O)N1CCC[C@H]1C(=O)N[C@@H](Cc1c[nH]c2ccccc12)C(=O)N[C@@H](CCCN=C(N)N)C(=O)N[C@@H](CCCN=C(N)N)C(N)=O` [ILPWKLPWWPWRR], for which the MIC in experiment [6] amounted to 1.71 µM (≈ 3.13 µg/mL); in experiment [7], 13.6 µM (≈ 25 µg/mL); in experiment [8] it was 0.851 µM (≈ 1.56 µg/mL).

A word on the MIC: it is the lowest concentration that inhibits growth of the organism. Higher therefore signals a need for much substance.
